Reference: patent US20240317735A1, “HYDROISOQUINOLINE OR HYDRONAPHTHYRIDINE COMPOUNDS FOR THE TREATMENT OF AUTOIMMUNE DISEASE” (Hoffmann-La Roche Inc., priority 2020, published 2024)

Key:
human TLR8 = target: T1, human TLR8 (Homo sapiens, UniProt Q9NR97); experiment: HEK293-Blue-hTLR-8 cells assay (SEAP reporter, R848 stimulation); format: cell-based; conditions: HEK293-Blue-hTLR8 cells, R848, 20 hrs; read-out: HEK/hTLR8 IC50
T1 construct: host or cells: HEK293 (HEK-Blue hTLR8)
T1 sequence (Q9NR97 27-1041): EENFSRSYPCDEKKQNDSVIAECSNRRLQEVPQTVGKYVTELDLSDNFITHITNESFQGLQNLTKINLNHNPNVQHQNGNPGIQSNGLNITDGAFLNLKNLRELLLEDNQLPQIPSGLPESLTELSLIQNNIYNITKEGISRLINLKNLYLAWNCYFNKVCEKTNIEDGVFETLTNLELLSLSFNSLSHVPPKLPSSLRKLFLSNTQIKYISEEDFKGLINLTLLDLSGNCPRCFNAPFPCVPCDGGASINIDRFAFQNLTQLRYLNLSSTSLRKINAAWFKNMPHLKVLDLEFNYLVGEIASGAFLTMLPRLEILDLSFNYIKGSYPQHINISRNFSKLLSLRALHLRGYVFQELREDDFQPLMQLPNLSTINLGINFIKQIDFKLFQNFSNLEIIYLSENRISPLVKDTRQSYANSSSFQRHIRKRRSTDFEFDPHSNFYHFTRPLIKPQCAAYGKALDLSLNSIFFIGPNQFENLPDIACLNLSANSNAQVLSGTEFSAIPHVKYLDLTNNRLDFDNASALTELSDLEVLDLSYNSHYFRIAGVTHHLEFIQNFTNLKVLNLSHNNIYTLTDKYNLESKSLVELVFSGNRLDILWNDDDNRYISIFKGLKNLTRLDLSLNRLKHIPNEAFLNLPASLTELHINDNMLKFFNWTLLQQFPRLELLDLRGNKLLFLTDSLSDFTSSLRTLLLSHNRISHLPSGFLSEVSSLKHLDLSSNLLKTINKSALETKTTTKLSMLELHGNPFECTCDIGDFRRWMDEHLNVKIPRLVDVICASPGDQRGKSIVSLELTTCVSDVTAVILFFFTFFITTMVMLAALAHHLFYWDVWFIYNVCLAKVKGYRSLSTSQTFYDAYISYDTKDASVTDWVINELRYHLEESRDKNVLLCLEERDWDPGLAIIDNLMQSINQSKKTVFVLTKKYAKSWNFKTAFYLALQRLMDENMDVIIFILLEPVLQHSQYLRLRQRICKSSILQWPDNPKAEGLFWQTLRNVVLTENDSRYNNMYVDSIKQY
Method: The following tests were carried out in order to determine the activity of the compounds of formula (I) and (Ia) in HEK293-Blue-hTLR-7/8/9 cells assay.
A stable HEK293-Blue-hTLR-8 cell line was purchased from InvivoGen (Cat. #: hkb-htlr8, San Diego, California, USA). These cells were originally designed for studying the stimulation of human TLR8 by monitoring the activation of NF-κB. A SEAP (secreted embryonic alkaline phosphatase) reporter gene was placed under the control of the IFN-β minimal promoter fused to five NF-κB and AP-1-binding sites. The SEAP was induced by activating NF-κB and AP-1 via stimulating HEK-Blue hTLR8 cells with TLR8 ligands. Therefore the reporter expression was declined by TLR8 antagonist under the stimulation of a ligand, such as R848, for incubation of 20 hrs. The cell culture supernatant SEAP reporter activity was determined using QUANTI-Blue™ kit (Cat. #: rep-qb1, Invivogen, San Diego, Ca, USA) at a wavelength of 640 nm, a detection medium that turns purple or blue in the presence of alkaline phosphatase.
HEK293-Blue-hTLR8 cells were incubated at a density of 250,000˜450,000 cells/mL in a volume of 170 μL in a 96-well plate in Dulbecco's Modified Eagle's medium (DMEM) containing 4.5 g/L glucose, […] penicillin, […], […] Normocin, 2 mM L-glutamine, 10% (v/v) heat-inactivated fetal bovine serum with addition of 20 μL test compound in a serial dilution in the presence of final DMSO at 1% and 10 μL of 60 uM R848 in above DMEM, perform incubation under 37° C. in a C02 incubator for 20 hrs. Then 20 μL of the supernatant from each well was incubated with 180 μL Quanti-blue substrate solution at 37° C. for 2 hrs and the absorbance was read at 620-655 nm using a spectrophotometer. The signaling pathway that TLR8 activation leads to downstream NF-κB activation has been widely accepted, and therefore similar reporter assay was modified for evaluating TLR8 antagonist.

[1] = Human microsome stability assay; format: in vitro ADME; conditions: 1 μM test compound, 0.5 mg/mL liver microsomal protein, 37° C., pH 7.4
Method: The human microsomal stability assay is used for early assessment of metabolic stability of a test compound in human liver microsomes.
Human liver microsomes (Cat. NO.: 452117, Corning, USA; Cat. NO.: H2610, Xenotech, USA) were preincubated with test compound for 10 minutes at 37° C. in 100 mM potassium phosphate buffer, pH 7.4. The reactions were initiated by adding NADPH regenerating system. The final incubation mixtures contained 1 μM test compound, 0.5 mg/mL liver microsomal protein, 1 mM MgCl2, 1 mM NADP, 1 unit/mL isocitric dehydrogenase and 6 mM isocitric acid in 100 mM potassium phosphate buffer, pH 7.4. After incubation times of 0, 3, 6, 9, 15 and 30 minutes at 37° C., 300 μL of cold acetonitrile (including internal standard) was added to 100 μL incubation mixture to terminate the reaction. Following precipitation and centrifugation, the amount of compound remaining in the samples were determined by LC-MS/MS. Controls of no NADPH regenerating system at zero and 30 minutes were also prepared and analyzed.

Row | IC50 (human TLR8) [nM] | Clearance of Human microsome [1] [mL/min/kg] | Compound
1 | 10 | 10.4 | C[C@H]1CN(c2ccnc3c2cnn3C)Cc2ccc(OC[C@@H]3CNCCN3C=O)cc21 [Example 45, (2S)-2-[[(4R)-4-methyl-2-(1-methylpyrazolo[3,4-b]pyridin-4-yl)-3,4-dihydro-1H-isoquinolin-6-yl]oxymethyl]piperazine-1-carbaldehyde]
2 | 26 | 10.1 | C[C@H]1CN(c2ccnc3c2cnn3C)Cc2ccc(N3CC4(CNC4)CC3=O)cc21 [Example 34, 6-[(4R)-4-methyl-2-(1-methylpyrazolo[3,4-b]pyridin-4-yl)-3,4-dihydro-1H-isoquinolin-6-yl]-2,6-diazaspiro[3.4]octan-7-one]
3 | 11 | 9.9 | C[C@H]1CN(c2ccnc3c2cnn3C)Cc2ccc(N3CCN(c4cc5c(cn4)CCNC5)CC3)cc21 [Example 9, 7-[4-[(4R)-4-methyl-2-(1-methylpyrazolo[3,4-b]pyridin-4-yl)-3,4-dihydro-1H-isoquinolin-6-yl]piperazin-1-yl]-1,2,3,4-tetrahydro-2,6-naphthyridine]
4 | 23 | 8.0 | Cc1cc(N2Cc3cnc(N4CC5(CNCCO5)C4)cc3[C@@H](C)C2)c2cnn(C)c2n1 [Example 79, 2-[(5R)-7-(1,6-dimethylpyrazolo[3,4-b]pyridin-4-yl)-5-methyl-6,8-dihydro-5H-2,7-naphthyridin-3-yl]-5-oxa-2,8-diazaspiro[3.5]nonane]
5 | 3 | 6.2 | CC1CN(c2ccc3c(c2)[C@@H](C)CN(c2ccnc4c2cnn4C)C3)CCN1 (stereo partly drawn) [Example 15, (4R)-4-methyl-6-(3-methylpiperazin-1-yl)-2-(1-methylpyrazolo[3,4-b]pyridin-4-yl)-3,4-dihydro-1H-isoquinoline]
6 | < 0.3 | 6.2 | C[C@H]1CN(c2ccnc3c2cnn3C)Cc2ccc(N3CCN(CCN(C)C)CC3)cc21 [Example 38, N,N-dimethyl-2-[4-[(4R)-4-methyl-2-(1-methylpyrazolo[3,4-b]pyridin-4-yl)-3,4-dihydro-1H-isoquinolin-6-yl]piperazin-1-yl]ethanamine]
7 | 8 | 6.2 | C[C@H]1CN(c2ccnc3c2cnn3C)Cc2ccc(OC3CN(C4CCNCC4)C3)cc21 [Example 41, (4R)-4-methyl-2-(1-methylpyrazolo[3,4-b]pyridin-4-yl)-6-[1-(4-piperidyl)azetidin-3-yl]oxy-3,4-dihydro-1H-isoquinoline]
8 | 4 | 8.2 | C[C@H]1CN(c2ccnc3c2cnn3C)Cc2ccc(N3CC4(CCNCC4)CC3=O)cc21 [Example 16, 2-[(4R)-4-methyl-2-(1-methylpyrazolo[3,4-b]pyridin-4-yl)-3,4-dihydro-1H-isoquinolin-6-yl]-2,8-diazaspiro[4.5]decan-3-one]
9 | 2 | 6.8 | C[C@H]1CN(c2ccnc3c2cnn3C)Cc2ccc(O[C@@H]3C[C@H]4CNCCN4C3)cc21 [Example 42, (4R)-4-methyl-2-(1-methylpyrazolo[3,4-b]pyridin-4-yl)-6-[[(7R,8aS)-1,2,3,4,6,7,8,8a-octahydropyrrolo[1,2-a]pyrazin-7-yl]oxy]-3,4-dihydro-1H-isoquinoline]

More lines, now with the values behind:

Row | Compound | IC50 (human TLR8) [nM] | Clearance of Human microsome [1] [mL/min/kg]
10 | Cc1cc(N2Cc3ccc(N4CCC(C)(N)CC4)nc3[C@@H](C)C2)c2cnn(C)c2n1 [Example 59, 4-methyl-1-[(8S)-6-(1,6-dimethylpyrazolo[3,4-b]pyridin-4-yl)-8-methyl-7,8-dihydro-5H-1,6-naphthyridin-2-yl]piperidin-4-amine] | 0.5 | 9.4
11 | Cc1cc(N2Cc3ccc(N4CCN(C)CC4)nc3[C@@H](C)C2)c2cnn(C)c2n1 [Example 67, (8S)-6-(1,6-dimethylpyrazolo[3,4-b]pyridin-4-yl)-8-methyl-2-(4-methylpiperazin-1-yl)-7,8-dihydro-5H-1,6-naphthyridine] | 1 | 10.5
12 | Cc1cc(N2Cc3ccc(OC[C@@H]4CNCCN4)cc3[C@@H](C)C2)c2cnn(C)c2n1 [Example 31, (4R)-2-(1,6-dimethylpyrazolo[3,4-b]pyridin-4-yl)-4-methyl-6-[[(2S)-piperazin-2-yl]methoxy]-3,4-dihydro-1H-isoquinoline] | 2 | 7.9
13 | Cc1cc(N2Cc3cnc(N4CC[C@@H](N)[C@H](F)C4)cc3[C@@H](C)C2)c2cnn(C)c2n1 [Example 80, (3R,4R)-3-fluoro-1-[(5R)-7-(1,6-dimethylpyrazolo[3,4-b]pyridin-4-yl)-5-methyl-6,8-dihydro-5H-2,7-naphthyridin-3-yl]piperidin-4-amine] | 34 | 6.2
14 | Cc1cc(N2Cc3ccc(N4C[C@@H](F)[C@@H](N)C4)nc3[C@@H](C)C2)c2cnn(C)c2n1 [Example 69, (3S,4R)-4-fluoro-1-[(8S)-6-(1,6-dimethylpyrazolo[3,4-b]pyridin-4-yl)-8-methyl-7,8-dihydro-5H-1,6-naphthyridin-2-yl]pyrrolidin-3-amine] | 9 | 8.1
15 | Cc1cc(N2Cc3ccc(N4CCNCC4)nc3[C@@H](C)C2)c2cnn(C)c2n1 [Example 66, (8S)-6-(1,6-dimethylpyrazolo[3,4-b]pyridin-4-yl)-8-methyl-2-piperazin-1-yl-7,8-dihydro-5H-1,6-naphthyridine] | 1 | 9.8
16 | Cc1cc(N2Cc3cnc(O[C@@H]4C[C@H]5CNCCN5C4)cc3[C@@H](C)C2)c2cnn(C)c2n1 [Example 76, (4R)-2-(1,6-dimethylpyrazolo[3,4-b]pyridin-4-yl)-4-methyl-6-[[(7R,8aS)-1,2,3,4,6,7,8,8a-octahydropyrrolo[1,2-a]pyrazin-7-yl]oxy]-3,4-dihydro-1H-2,7-naphthyridine] | 16 | 6.2
17 | Cc1cc(N2Cc3cnc(OCCN4CCNCC4)cc3[C@@H](C)C2)c2cnn(C)c2n1 [Example 77, (4R)-2-(1,6-dimethylpyrazolo[3,4-b]pyridin-4-yl)-4-methyl-6-(2-piperazin-1-ylethoxy)-3,4-dihydro-1H-2,7-naphthyridine] | 16 | 6.2
